The nature of experiment [1]: Antioxidant activity assessed as ABTS radical scavenging activity incubated for 10 mins in dark. It counts as functional.
The target in experiment [2] is T1, Amyloid-beta precursor protein (Homo sapiens, UniProt P05067). As to the kind of experiment: Inhibition of HFIP-pretreated amyloid beta (1 to 42) (unknown origin) self-induced aggregation at 20 uM after 24 hrs by thioflavin-T fluorescence assay relative to control.
The target of experiment [3] is T1, Amyloid-beta precursor protein. The experiment in a line: Inhibition of HFIP-pretreated amyloid beta (1 to 42) (unknown origin) self-induced aggregation after 24 hrs by thioflavin-T fluorescence assay.
For experiment [4] the target is unchanged. The experiment in a line: Disaggregation of Fe3+-induced amyloid beta (1 to 42) (unknown origin) preformed fibrils assessed as remaining amyloid beta aggregation level at […] after 24 hrs by thioflavin-T fluorescence assay.
For experiment [5] the target is unchanged. As to the kind of experiment: Disaggregation of self-induced amyloid beta (1 to 42) (unknown origin) preformed fibrils at 50 uM after 24 hrs by uranyl acetate staining based transmission electron microscopic analysis.
Experiment [6] in a line: Metal chelating activity assessed as inhibition of Fe3+-induced amyloid beta (1 to 42 residues) fibrils by measuring fluorescence level after 24 hrs by thioflavin-T fluorescence assay. Set-up: scale not given: the % may be the effect or the level left.
Experiment [7] addresses T1, Amyloid-beta precursor protein. As to the kind of experiment: Disaggregation of Cu2+-induced amyloid beta (1 to 42) (unknown origin) preformed fibrils assessed as remaining amyloid beta aggregation level at […] after 24 hrs by thioflavin-T fluorescence assay.
Experiment [8] is described as follows: Metal chelating activity assessed as inhibition of Fe2+-induced amyloid beta (1 to 42 residues) fibrils after 24 hrs by thioflavin-T fluorescence assay.
Experiment [9] in a line: Metal chelating activity assessed as inhibition of Cu2+-induced amyloid beta (1 to 42 residues) fibrils at 50 uM after 24 hrs by uranyl acetate staining based transmission electron microscopic analysis.
Experiment [10] can be described thus: Metal chelating activity assessed as compound-nitriloacetate Fe3+ complex formation by UV-spectrophotometric analysis.
Experiment [11] has as its target T1, Amyloid-beta precursor protein. The experiment in a line: Disaggregation of Cu2+-induced amyloid beta (1 to 42) (unknown origin) preformed fibrils at 50 uM after 24 hrs by uranyl acetate staining based transmission electron microscopic analysis.
A short description of experiment [12]: Metal chelating activity assessed as inhibition of Fe3+-induced amyloid beta (1 to 42 residues) fibrils at 50 uM after 24 hrs by uranyl acetate staining based transmission electron microscopic analysis.
Experiment [13] is described as follows: Metal chelating activity assessed as inhibition of Cu2+-induced amyloid beta (1 to 42 residues) fibrils after 24 hrs by thioflavin-T fluorescence assay.
Experiment [14] concerns the target T1, Amyloid-beta precursor protein. The experiment in a line: Disaggregation of Fe3+-induced amyloid beta (1 to 42) (unknown origin) preformed fibrils at 75 uM after 24 hrs by uranyl acetate staining based transmission electron microscopic analysis.

Activity calls are given as the source filed them. No cut-off for these calls is given here.

T1 sequence (P05067 whole entry): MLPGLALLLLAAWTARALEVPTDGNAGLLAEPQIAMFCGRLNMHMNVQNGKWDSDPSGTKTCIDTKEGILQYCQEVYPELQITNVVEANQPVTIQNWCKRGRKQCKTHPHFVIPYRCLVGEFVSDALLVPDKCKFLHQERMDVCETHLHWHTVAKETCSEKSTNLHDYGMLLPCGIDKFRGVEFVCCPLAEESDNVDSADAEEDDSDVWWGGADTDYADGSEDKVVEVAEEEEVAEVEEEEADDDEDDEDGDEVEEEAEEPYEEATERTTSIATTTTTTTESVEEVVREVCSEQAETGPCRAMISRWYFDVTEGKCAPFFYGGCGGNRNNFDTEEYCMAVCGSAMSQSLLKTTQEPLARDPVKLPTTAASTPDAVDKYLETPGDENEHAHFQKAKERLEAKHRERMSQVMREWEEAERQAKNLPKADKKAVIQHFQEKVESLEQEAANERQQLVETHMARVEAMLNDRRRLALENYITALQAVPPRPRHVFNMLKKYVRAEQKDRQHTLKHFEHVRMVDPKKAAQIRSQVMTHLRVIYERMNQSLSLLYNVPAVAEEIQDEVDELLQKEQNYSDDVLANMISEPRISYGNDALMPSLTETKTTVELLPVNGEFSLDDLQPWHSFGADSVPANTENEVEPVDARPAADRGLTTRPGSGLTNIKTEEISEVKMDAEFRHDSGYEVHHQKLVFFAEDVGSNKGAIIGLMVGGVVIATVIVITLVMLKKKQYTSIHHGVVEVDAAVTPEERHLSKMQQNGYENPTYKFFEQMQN

For the compound `O=c1cc(/C=C/c2cccc(F)c2)occ1O`, the IC50 (commonly the concentration that gives 50% inhibition) stood at 3.45 µM in experiment [1] and 17.7 µM in experiment [3]. Besides, the inhibition (commonly the change of the read-out against control, counted positive when it falls) in [2] worked out at 58%.

Consider `O=c1cc(/C=C/c2ccc(O)cc2)occ1O`, for which the Activity was 14% in [4], 19% in experiment [6] and 68% in experiment [7]. The result in [5], in experiment [10], in experiment [11] and in [14] was Active. The IC50 in experiment [1] worked out at 1.94 µM; in experiment [3] it was 7.2 µM. Also, the inhibition in experiment [2] is 68.5%. Also, the inhibition result in experiment [8] and in experiment [13] was “inactive” in each case. The inhibition result in experiment [9] and in experiment [12] was “Active” throughout.

For `O=c1cc(/C=C/c2ccccc2)occ1O`, the IC50 in [1] amounted to 2.25 µM. In addition, the inhibition in experiment [2] is 42.5%.

`COc1cc(/C=C/c2cc(=O)c(O)co2)cc(OC)c1`: the IC50 in experiment [1] was found to be 1.79 µM. The inhibition in [2] came to 18.6%.

With `CCOc1ccc(/C=C/c2cc(=O)c(O)co2)cc1`, in experiment [1], the IC50 amounted to 4.21 µM. The inhibition in [2] stood at 38.2%.

With `O=c1cc(/C=C/c2cc(O)cc(O)c2)occ1O`, the IC50 in [1] is 1.19 µM; in experiment [3] it was 17.9 µM. For the same compound, the inhibition in [2] came to 56.9%.

`O=c1cc(/C=C/c2ccccc2O)occ1O`: the results for the Activity in experiment [4], in [6] and in experiment [7] were 17%, 16% and 62%, respectively. For the same compound, the outcome in experiment [5], in experiment [11] and in [14] was Active. The IC50 in experiment [1] is 1.18 µM; in [3], 8.29 µM. Further, the inhibition in experiment [2] worked out at 63.6%. The inhibition result in experiment [8] and in experiment [13] was “inactive” in each case. Further, the inhibition entry in [9] and in [12] was “Active” each time.

On to `O=c1cc(/C=C/c2ccc([N+](=O)[O-])cc2)occ1O`, for which the IC50 in experiment [1] is 1.7 µM.

In the case of `COc1ccccc1/C=C/c1cc(=O)c(O)co1`, the IC50 in experiment [1] amounted to 3.47 µM; in experiment [3], 7.93 µM. In addition, the inhibition in experiment [2] turned out to be 61.1%.

On to `O=c1cc(/C=C/c2ccc(Cl)cc2)occ1O`, for which the IC50 in experiment [1] was 1.95 µM. For the same compound, in [2], the inhibition worked out at 18%.

Take `Oc1ccc(/C=C/c2cc(O)cc(O)c2)cc1` [RESVERATROL]: the Activity in [4] was 58%. The result in experiment [5], in [11] and in [14] was Active. Also, the IC50 in experiment [1] was found to be 0.76 µM. The inhibition result in experiment [9] and in [12] was “Active” throughout.

Regarding `Cc1c(C)c2c(c(C)c1O)CCC(C)(C(=O)O)O2` (stereo unspecified) [TROLOX], in experiment [1], the IC50 was found to be 3.89 µM.

As to `CN(C)c1ccc(/C=C/c2cc(=O)c(O)co2)cc1`, the IC50 came out at 3.05 µM in experiment [1] and 5.92 µM in [3]. Also, in experiment [2], the inhibition is 61.2%.
